According to patent US20210121466A1, “COMBINATION THERAPY OF A CHIMERIC ANTIGEN RECEPTOR (CAR) T CELL THERAPY AND A KINASE INHIBITOR” (Juno Therapeutics, Inc., priority 2018, published 2021):

How the values were obtained:
[1] = tested on: anti-CD19 CAR T cells; test: Serial restimulation assay of anti-CD19 CAR+ T cells with K562-CD19 target cells; assay type: cell-based, human; conditions: day 18; both concentrations (50, 500 nM); two of three donors
Source text: (§1) To generate CAR-expressing T cells, T cells were isolated by immunoaffinity-based enrichment from three healthy human donor subjects, and cells from each donor were activated and transduced with a viral vector encoding an anti-CD19 CAR. The CAR contained an anti-CD19 scFv, an Ig-derived spacer, a human CD28-derived transmembrane domain, a human 4-1BB-derived intracellular signaling domain and a human CD3 zeta-derived signaling domain. The nucleic acid construct encoding the CAR also included a truncated EGFR (tEGFR) sequence for use as a transduction marker, separated from the CAR sequence by a self-cleaving T2A sequence.
(§2) CAR-expressing CD4+ and CD8+ cells were mixed 1:1 for each donor, individually, and the pooled cells for each donor assessed in vitro under various conditions.
(§3) The ability of cells to expand ex vivo following repeated stimulations in some aspects can indicates capacity of CAR-T cells to persist (e.g., following initial activation) and/or is indicative of function and/or fitness in vivo (Zhao et al. (2015) Cancer Cell, 28:415-28). Anti-CD19 CAR+ T cells generated as described above were plated in triplicate at 100,000 cells/well on 96 well Poly-D-Lysine coated plates, and irradiated target cells (K562-CD19) were added at an effector to target ratio of 2.5:1. […] A total of 7 rounds of stimulation during a 25 day culture period were carried out.

[2] = tested on: CAR T cells; test: CD62L expression by flow cytometry after 18 days of serial stimulation; assay type: cell-based, human; conditions: donors 2 and 3
Description: as §3

[3] = tested on: CD19+ Nalm-6 disseminated tumor line; test: Disseminated Nalm-6 tumor xenograft mouse model, ibrutinib by daily oral gavage; assay type: in vivo, NSG mice
Source text: On day zero (0), NSG mice were intravenously injected with 5×10^5 Nalm-6 cells expressing firefly luciferase. […] To permit assessment of the effect of a combination therapy with the inhibitor, a suboptimal dose of anti-CD19 CAR T cells from two different donors (generated by transducing cells derived from samples of human donor subjects essentially as described above) were i.v. injected into each mouse at a concentration of 5×10^5 CAR+ T cells per mouse at day 5. […] Eight (N=8) mice per group were monitored.
Following treatment as described above, tumor growth over time was measured by bioluminescence imaging and the average radiance (p/s/cm^2/sr) was measured. Survival of treated mice also was assessed over time.

[4] = tested on: anti-CD19 CAR-T cells from DLBCL subjects; test: Serial restimulation and cytolytic function of anti-CD19 CAR-T cells manufactured from DLBCL patients; assay type: cell-based, human
Source text: Cells were subjected to serial restimulation over a 21 day culture period and monitored for cell expansion and cytotoxic activity.

[5] = tested on: CAR+ T cells; test: Ex vivo immunophenotyping (flow cytometry, t-SNE) of CAR+ T cells at day 12 post CAR T transfer; assay type: in vivo, NSG mice
Description: (§4) NSG mice described in Example 2 were intravenously injected on day 0 with 5×10^5 Nalm-6 cells expressing firefly luciferase. […] To permit assessment of the effect of a combination therapy with the inhibitor, a suboptimal dose of anti-CD19 CAR T cells was i.v. injected into the mice at 5×10^5/mouse at day 5. As a control, mice were administered the vehicle control without administration of the CAR-T cells or inhibitor.
Flow cytometry histograms showing the individual expression profiles of CD4, CD8, CD62L, CD45RA, CD44 and CXCR3 from the 4 gated t-SNE in FIG. 8B overlaid on the expression of the total population (shaded) is shown in FIG. 8C.

[6] = tested on: anti-CD19 CAR T cells; test: Expression of CAR-T cell surface markers by flow cytometry after stimulation with irradiated K562-CD19 cells; assay type: cell-based, human
Source text: as §1, §2
CAR-T cells generated as described above were plated at 100,000 cells/well on 96 well Poly-D-Lysine coated plates. Irradiated K562-CD19 target cells were added at an effector to target ratio of 2.5:1. […] Cells were harvested at 1, 2, 3, and 4 days, and were analyzed by flow cytometry for T cell activation and differentiation surface markers CD69, CD107a, PD-1, CD25, CD38, CD39, CD95, CD62L, CCR7, CD45RO and for truncated EGFR (a surrogate marker for CAR-transduced cells).

[7] = tested on: anti-CD19 CAR T cells; test: TH1 phenotype (CD4+CXCR3+CRTH2-) and activation/memory markers by flow cytometry during serial restimulation; assay type: cell-based, human
Description: as §3
A serial restimulation assay was performed as described above and cells were harvested at various times and analyzed by flow cytometry to assess percentage of TH1-phenotype (assessed as CD4+CXCR3+CRTH2−) T cells or TH2-phenotype (assessed as CD4+CXCR3−CRTH2+).

[8] = tested on: CAR-expressing T cells; test: RNA-Seq molecular signature of CAR-expressing T cells after 18 days of serial stimulation; assay type: cell-based, human
Description: RNA isolation was performed using the RNEasy Micro Kit (Qiagen). Samples were sequenced and RNASeq reads were mapped to the human genome (GRCh38) and aligned to the GENCODE release 24 gene model. […] Differentially expressed genes were identified by imposing a log2 fold change cutoff of 0.5 and a Benjamini-Hochberg adjusted false discovery rate (FDR) cutoff of 0.05.

[9] = tested on: CD19+ Nalm-6 disseminated tumor line; test: Disseminated Nalm-6 tumor xenograft mouse model, ibrutinib in drinking water; assay type: in vivo, NSG mice
Description: as §4

[10] = in vivo; cited from earlier work
[11] = tested on: anti-CD19 CAR T cells; test: Gene expression analysis (Nanostring Immune V2 panel) after 18 days of serial stimulation; assay type: cell-based, human; conditions: 50 nM or 500 nM; day 18 of serial restimulation
Description: as §3
At day 18 after serial stimulation, RNA was isolated from anti-CD19 CAR T cells and Nanostring Immune V2 panel tests were run across 594 genes. The log 2 (fold change) of each gene was plotted against the −log 10(Raw p-value) derived from ANOVA tests of unscaled housekeeping gene normalized to count data for treatment versus control.

[12] = tested on: anti-CD19 CAR T cells; test: Cytolytic activity of anti-CD19 CAR T cells co-cultured with K562-CD19 target cells in the presence of ibrutinib (IncuCyte); assay type: cell-based, human
Source text: as §1, §2
The target cells were labeled with NucLight Red (NLR), to permit tracking of target cells by microscopy.

[13] = tested on: CAR+ T cells and Nalm-6 tumor cells; test: Levels of CAR+ T cells and tumor cells in blood, bone marrow and spleen of Nalm-6 bearing mice; assay type: in vivo, NSG mice
Description: as §4
Samples were analyzed to assess presence and levels of CAR T cells (based on expression of the surrogate marker using an anti-EGFR antibody) and/or tumor cells at days 7, 12, 19 and 26 post CAR+ T cell transfer.

[14] = tested on: anti-CD19 CAR T cells; test: Cytokine production in supernatants of CAR-T / K562-CD19 co-cultures (MSD); assay type: cell-based, human
Source text: as §1, §2
CAR-T cells generated as described above were plated at 100,000 cells/well on 96 well Poly-D-Lysine coated plates to which irradiated target cells (K562-CD19) were added at an effector to target ratio of 2.5:1. […] Culture supernatants were harvested every 24 hrs at days 1, 2, 3 and 4, and IFNγ, IL-2, TNFα, IL-4 and IL-10 were measured from the culture supernatants using cytokine kits from Meso Scale Discovery (MSD).

## C=CC(=O)N1CCC[C@@H](n2nc(-c3ccc(Oc4ccccc4)cc3)c3c(N)ncnc32)C1 [ibrutinib, 1-[(3R)-3-[4-amino-3-(4-phenoxyphenyl)pyrazolo[3,4-d]pyrimidin-1-yl]piperidin-1-yl]prop-2-en-1-one]
[1]
  cell numbers and population doublings of anti-CD19 CAR T cells: enhanced cell numbers and population doublings
[2]
  CD62L expression: significant increase
[3]; greater time points, two donors, ibrutinib with CAR T, p<0.001
  survival vs CAR T and vehicle: significantly increased survival
[3]; ibrutinib 25 mg/kg qd P.O. with CAR-T cells
  median survival vs suboptimal anti-CD19 CAR T cell dose + vehicle: increased median survival
[3]; ibrutinib 25 mg/kg qd P.O. with suboptimal dose of anti-CD19 CAR T cells, p<0.001, p<0.0001
  tumor growth vs CAR-T cells and vehicle: significantly decreased tumor growth
[3]; ibrutinib alone, 25 mg/kg qd P.O., ibrutinib-resistant model
  tumor burden (average radiance) vs vehicle: no effect on tumor burden
[4]; 50 nM, 16 days of serial stimulation, one patient, P<0.01
  cytolytic activity: increase in cytolytic activity
[4]; 500 nM, 16 days of serial stimulation, each subject
  cytolytic function: increase in cytolytic function
[4]; 50 and 500 nM, 21 day culture, both DLBCL patients
  proliferation of CAR T cells (cell doublings): did not inhibit the proliferation
[5]; bone marrow, day 12, ibrutinib-treated animals
  population 4 as percentage of CAR-T cells: 15.2%
[5]; day 12, CAR-T cells with ibrutinib vs control
  phenotype of CAR+ T cells isolated from bone marrow: phenotypic changes were observed
[5]; day 12 post CAR T transfer
  CD8+CD44hi CXCR3hi CD45RAlo CD62Lhi (population 2) and CD4+CD44hi CXCR3int CD45RAhi CD62Lhi (population 4) in bone marrow vs control mice: increase
[6]; 5000, 500, 50, 5 and 0.5 nM, 3 donors, up to 4 days
  expression of truncated EGFR surrogate marker, activation markers CD25, CD38, CD39, CD95, CD62L and phenotypic markers CCR7, CD62L, CD45RO: no significant effect
[6]; CD4+ or CD8+ cells cultured in the presence of ibrutinib
  expression levels of CD69, CD107a or PD-1: subtle decrease in expression levels
[6]; highest (supraphysiological) concentration tested
  percentage of anti-CD19 CAR T cells expressing CD69, CD107a or PD-1: subtle decrease in the percentage
[6]; over four days after stimulation
  phenotype of cells as central memory (TCM) or effector memory (TEM) subsets (CCR7, CD45RA): did not affect the phenotype
[7]; 500 nM, P<0.01
  percentage of TH1 cells: further enhanced
[7]; CAR T cells from the serial stimulation assay
  additional CAR T activation or memory markers: No significant effects
[7]; after serial stimulation, greater with increasing concentrations
  percentage of CAR+ T cells with TH1 phenotype: increase the percentage
[8]; 50 nM, day 18
  gene expression changes: not significant, similar trends
[8]; day 18 serial stimulation
  expression of HES6, HIC1, LZTFL1, NRIP1, CD38 and RARRES3: downregulation
  expression of MSC: upregulation
  expression of SELL/CD62L: increases
  expression of granzyme A and CD38: decreases
[9]; ibrutinib 25 mg/kg/day in drinking water with CAR T
  tumor growth vs CAR T with vehicle alone: significantly (P<0.001) decreased tumor growth
[9]; ibrutinib 25 mg/kg/day in drinking water with anti-CD19 CAR-T cells, p<0.001
  median survival vs suboptimal anti-CD19 CAR T cell dose + vehicle: increased median survival
[10]
  Cmax: 227 nM
[11]
  gene expression (594 genes): did not significantly alter gene expression
[12]; all concentrations tested (0.5-5000 nM) during the co-culture
  cytolytic function of the anti-CD19 CAR T cells: did not inhibit
[12]; one donor, P<0.0001
  target cell killing: modestly increased target cell killing
[12]; two donors, concentration increased up to 500 nM, E:T 2.5:1, 4 days
  cytolytic activity of anti-CD19 CAR-expressing T cells (target cell killing normalized to untreated control, AUC): did not significantly impact
[13]; CAR+ cell treatment combined with ibrutinib
  tumor cells detected in the blood, bone marrow or spleen vs vehicle alone: significantly fewer tumor cells
[13]; blood, ibrutinib in drinking water
  circulating CAR+ T cells vs CAR+ T cells and vehicle: significant increase
[13]; day 19 post CAR-T cell transfer, p<0.05
  number of CAR-T cells in the blood: significant increase in the number of cells
[14]; 50 nM
  IFN-γ and IL-2 production: some increase
[14]; 50 nM, some donors
  cytokine production: modestly increased
[14]; physiological concentrations of ibrutinib
  cytokine concentrations: did not significantly decrease
